# Source: patent US20050187240A1, “Aaptamine and isoaaptamine and structural modifications thereof” (The Arizona Board of Regents, Acting for and on behalf of …, priority 2004, published 2005)
# pIC50: −log10 of the molar value. Structures can show the parent of a compound that is named as a salt. Where two headings read alike, the source gives them in different places.
# Experiments:
# CNS SF-268 = experiment: Cancer cell growth inhibition, CNS SF-268; assay type: cell-based, human; details: Homo sapiens; Table 3; CNS SF-268; read-out: Cancer cell growth inhibitory ED50
# Procedure: (§1) Biology The cancer cell growth inhibitory properties were examined using the murine P388 lymphocytic leukemia cell line and a selection of human cancer cell lines.
# (§2) All of the synthetic products were evaluated against a minipanel of human cancer cell lines, the murine P388 lymphocytic leukemia cell line and a selection of microorganisms.
# ovary OVCAR-3 = experiment: Cancer cell growth inhibition, ovary OVCAR-3; assay type: cell-based, human; details: Table 1
# Excerpt: (§3) (Boyd, M. R., Cancer: Principles and Practices of Oncology Updates; […], et al., Eds; Lippincott: Philadelphia, 1989, Vol. 10, No. 3, pp. 1-12; Boyd, et al., Drug Development Research 1995, 34, 91-109; Boyd, M. R., et al. Cytotoxic Anticancer Drugs: Models and Concepts for Drug Discovery and Development; Valeriote, A., et al., Eds, Kluwer Academic Publishers: Amsterdam, 1992, pp. 11-34.)
# colon KM 20L2 = experiment: Cancer cell growth inhibition, colon KM 20L2; assay type: cell-based, human; details: Homo sapiens, colon KM 20L2
# How it was run: (§4)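 Growth inhibition in murine P388 leukemia and human cancer cell line panels (Arizona State University minipanel and NCI 60-cell screen).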
# renal A498 = experiment: Cancer cell growth inhibition, renal A498; assay type: cell-based, human; details: Table 1
# Excerpt: as §3
# pancreas BXPC-3 = experiment: Cancer cell growth inhibition, pancreas BXPC-3; assay type: cell-based, human; details: Homo sapiens; Table 3; pancreas BXPC-3; read-out: Cancer cell growth inhibitory ED50
# Procedure: as §1, §2
# CNS SF-295 = experiment: Cancer cell growth inhibition, CNS SF-295; assay type: cell-based, human; details: Table 1
# Excerpt: as §3
# melanoma SK-MEL-5 = experiment: Cancer cell growth inhibition, melanoma SK-MEL-5; assay type: cell-based, human; details: Table 1
# Excerpt: as §3
# Candida albicans = experiment: Broth microdilution susceptibility assay, Candida albicans; assay type: cell-based; details: for MIC: Table 4, read-out: Range of minimum inhibitory concentration
# lung NCI-H460 = experiment: Cancer cell growth inhibition, lung NCI-H460; assay type: cell-based, human; details: Homo sapiens, lung NCI-H460
# How it was run: as §4
# Cryptococcus neoformans = experiment: Broth microdilution susceptibility assay, Cryptococcus neoformans; assay type: cell-based
# prostrate DU-145 = experiment: Cancer cell growth inhibition, prostate DU-145; assay type: cell-based, human; details: Homo sapiens; Table 3; prostrate DU-145; read-out: Cancer cell growth inhibitory ED50
# Procedure: as §1, §2
# [1] = system: Stenotrophomonas maltophilia; experiment: Broth microdilution susceptibility assay, Stenotrophomonas maltophilia; assay type: cell-based; details: for MIC: Table 4, Stenotrophomonas maltophil, read-out: Range of minimum inhibitory concentration
# tubulin = experiment: Tubulin polymerization (assembly) inhibition; assay type: biochemical; details: b138 series; 20 minutes incubation at 30° C.; read-out: IC50 for inhibition of extent of tubulin assembly
# Procedure: Only minimal inhibitory activity was observed. While compounds 15 and 8 did inhibit the rate of polymerization by over 50% at 40 μM (the highest concentration examined), an IC50 value for inhibition of assembly extent was obtained only for compound 18. […] Thus, it seems unlikely that the cytotoxic mechanism for these aaptamine analogs derives from an interaction with tubulin.
# A number of the aaptamine derivatives whose synthesis is described here were examined for potential effects on tubulin assembly. These were compounds 2, 4, 5, 9a-c, and 10a-d. […] For comparison, in experiments performed contemporaneously, the potent colchicine site drug combretastatin A-4 yielded an IC50 value of about 2 μM.
# Enterococcus faecalis = experiment: Broth microdilution susceptibility assay, Enterococcus faecalis; assay type: cell-based
# Streptococcus pneumoniae = experiment: Broth microdilution susceptibility assay, Streptococcus pneumoniae; assay type: cell-based
# Neisseria gonorrhoeae = experiment: Broth microdilution susceptibility assay, Neisseria gonorrhoeae; assay type: cell-based
# Staphylococcus aureus = experiment: Broth microdilution susceptibility assay, Staphylococcus aureus; assay type: cell-based
# [2] = Stability of the substance (observation); assay type: physicochemical
# Excerpt: When newly isolated, isoaaptamine (2) appears as a yellow colored powder that rapidly changes to dark green and finally brown or black, presumably due to air oxidation. […] For that purpose, isoaaptamine (2) was first phosphorylated with dibenzylphosphate (Pettit, G. R. et al., Anti-Cancer Drug Design 2000, 15, 203-216; Silverberg, L. J., Tetrahedron Lett. 1996, 37, 771-774). […] Scheme 2 below illustrates the aforementioned synthesis method. [drawing 17] Biology
# breast MCF-7 = experiment: Cancer cell growth inhibition, breast MCF-7; assay type: cell-based, human; details: Homo sapiens, MCF7; Table 3; breast MCF-7; read-out: Cancer cell growth inhibitory ED50
# Procedure: as §1, §2
# PKC alpha = PKC alpha (Homo sapiens, UniProt P17252); experiment: Inhibition of [3H]phorbol 12,13-dibutyrate binding to PKC alpha; details: 30 μM compound; read-out: inhibition of [3H]phorbol 12,13-dibutyrate binding to PKC alpha
# Procedure: Isoaaptamine (2) and derivatives 4, 5, 7, 8, and 14-18 were evaluated as ligands for PKC, based on the initial report of activity for isoaaptamine (Patil, et al., PCT Int. Appl. WO 95/0584 March 1995). Activity was measured at 30 μM compound using inhibition of [^3H-20]phorbol 12,13-dibutyrate binding to PKC alpha as described previously (Kazanietz, M. G., et al., Molecular Pharmacol., 1993, 44, 298). Assays were carried out with triplicate measurements in either single or triplicate experiments, depending on the compound.
# Compounds 4, 5, 9a-c, and 10a-d were evaluated as ligands for PKC, based on the initial report of activity for isoaaptamine. Activity was measured at 30 μM compound using inhibition of [20-^3H]phorbol 12,13-dibutyrate binding to PKC alpha as described previously (Kazanietz, M. G., et al., Characterization of Ligand and Substrate Specificity for the Calcium-Dependent and Calcium-Independent Protein Kinase C Isoenzymes, Molecular Pharmacol. 1993, 44, 298-307). Assays were carried out with triplicate measurement in either single or triplicate experiments, depending on the compound. Inhibition by 9a and 9b was 6.4% and 9.2%, respectively. That by 10a, 10b, and 10d was 11.8%, 12.6%, and 16.0%, respectively. That by other derivatives was 5% or less. We conclude that these compounds show only very weak activity as ligands for PKC.
# Escherichia coli = experiment: Broth microdilution susceptibility assay, Escherichia coli; assay type: cell-based; details: for MIC: Table 4, read-out: Range of minimum inhibitory concentration
# Micrococcus luteus = experiment: Broth microdilution susceptibility assay, Micrococcus luteus; assay type: cell-based
# Enterobacter cloacae = experiment: Broth microdilution susceptibility assay, Enterobacter cloacae; assay type: cell-based; details: for MIC: Table 4, read-out: Range of minimum inhibitory concentration
# [3] = system: murine P388 lymphocytic leukemia cell line; experiment: Cancer cell growth inhibition, murine P388 lymphocytic leukemia cell line; assay type: cell-based; details: for IC50: Mus musculus
# How it was run: as §4
# [4] = system: murine P388 lymphocytic leukemia cell line and a selection of human cancer cell lines; experiment: Cancer cell growth inhibition, P388 and human cancer cell line panel (summary in words); assay type: cell-based
# Excerpt: as §1
# [5] = Antimicrobial activity in the presence of human serum; assay type: cell-based
# Excerpt: The antimicrobial activity of phenols 15 and 18 in the presence of human serum was also investigated.
# [6] = Table 1, read-out: Cancer Cell Line Results ED50
# [7] = Table 3, read-out: Cancer cell growth inhibitory ED50
# [8] = Table 2, read-out: Range of minimum inhibitory concentration
# [9] = P388, Table 3, leukemia P-388, read-out: Cancer cell growth inhibitory ED50
# [10] = Table 4, read-out: Range of minimum inhibitory concentration
smiles,measurement,setting,value
"COc1cc2ccnc3c2c(c1O)N(C)C=C3 [Compound 2, isoaaptamine]",IC50,CNS SF-268,2.2 mg/L
same,Cancer Cell Line Results ED50,ovary OVCAR-3,1.20 mg/L
same,IC50,colon KM 20L2; [6],2.3 mg/L
same,IC50,colon KM 20L2; [7],> 10 mg/L
same,Cancer Cell Line Results ED50,renal A498,2.20 mg/L
same,IC50,pancreas BXPC-3,4.1 mg/L
same,Cancer Cell Line Results ED50,CNS SF-295,2.60 mg/L
same,Cancer Cell Line Results ED50,melanoma SK-MEL-5,1.60 mg/L
same,Range of minimum inhibitory concentration,Candida albicans; Table 2,* (no inhibition at 64 ug/ml)
same,IC50,lung NCI-H460; [6],2.4 mg/L
same,IC50,lung NCI-H460; [7],2.9 mg/L
same,MIC,Cryptococcus neoformans; [8],64 mg/L
same,IC50,prostrate DU-145,3.3 mg/L
same,Range of minimum inhibitory concentration,[1]; Table 2,* (no inhibition at 64 ug/ml)
same,pIC50,tubulin,4.51
same,MIC,Enterococcus faecalis; [8],32 to 64 mg/L
same,MIC,Streptococcus pneumoniae; [8],8 to 32 mg/L
same,MIC,Neisseria gonorrhoeae; [8],< 0.5 mg/L
same,MIC,Staphylococcus aureus; [8],16 to 32 mg/L
same,stability,[2],relatively unstable
same,IC50,breast MCF-7,2.2 mg/L
same,inhibition at 30 µM,PKC alpha,13%
same,Range of minimum inhibitory concentration,Escherichia coli; Table 2,* (no inhibition at 64 ug/ml)
same,MIC,Micrococcus luteus; [8],32 to 64 mg/L
same,Range of minimum inhibitory concentration,Enterobacter cloacae; Table 2,* (no inhibition at 64 ug/ml)
same,IC50,[3]; [9],1.6 mg/L
same,IC50,"[3]; Table 1, leukemia murine P388, read-out: Cancer Cell Line Results ED50",0.28 mg/L
same,P388 ED50,[3]; murine P388,0.28 mg/L
"CN1C=Cc2cc(O)c(O)c3nccc1c23 [Compound 7, 4-Methyl-8,9-dihydroxy-4H-benzo[de][1,6]naphthyridine]",IC50,CNS SF-268,5.6 mg/L
same,IC50,colon KM 20L2; [7],> 10 mg/L
same,IC50,pancreas BXPC-3,> 10 mg/L
same,MIC,Candida albicans,> 64 mg/L
same,IC50,lung NCI-H460; [7],> 10 mg/L
same,MIC,Cryptococcus neoformans; [10],> 64 mg/L
same,IC50,prostrate DU-145,> 10 mg/L
same,MIC,[1],> 64 mg/L
same,MIC,Enterococcus faecalis; [10],> 64 mg/L
same,MIC,Streptococcus pneumoniae; [10],> 64 mg/L
same,MIC,Neisseria gonorrhoeae; [10],64 mg/L
same,MIC,Staphylococcus aureus; [10],> 64 mg/L
same,IC50,breast MCF-7,4.1 mg/L
same,cancer cell growth inhibitory activity,[4],marginal activity
same,MIC,Escherichia coli,> 64 mg/L
same,MIC,Micrococcus luteus; [10],> 64 mg/L
same,MIC,Enterobacter cloacae,> 64 mg/L
same,IC50,[3]; [9],2.2 mg/L
"COc1cc2ccnc3c2c(c1OC)N(C)C=C3 [Compound 14, 1-Methyl-8,9-dimethoxy-1H-benzo[de][1,6]naphthyridine trifluoromethane-sulfonate]",MIC,Candida albicans,> 64 mg/L
same,MIC,Cryptococcus neoformans; [10],> 64 mg/L
same,MIC,[1],> 64 mg/L
same,MIC,Enterococcus faecalis; [10],> 64 mg/L
same,MIC,Streptococcus pneumoniae; [10],64 mg/L
same,MIC,Neisseria gonorrhoeae; [10],> 64 mg/L
same,MIC,Staphylococcus aureus; [10],> 64 mg/L
same,cancer cell growth inhibitory activity,[4],marginal activity
same,MIC,Escherichia coli,> 64 mg/L
same,MIC,Micrococcus luteus; [10],> 64 mg/L
same,MIC,Enterobacter cloacae,> 64 mg/L
"Oc1cc2ccnc3c2c(c1O)NC=C3 [Compound 15, 8,9-Dihydroxy-1H-Benzo[de][1,6]naphthyridine hydrobromide]",IC50,CNS SF-268,0.8 mg/L
same,IC50,colon KM 20L2; [7],0.3 mg/L
same,IC50,pancreas BXPC-3,0.33 mg/L
same,MIC,Candida albicans,64 mg/L
same,IC50,lung NCI-H460; [7],0.52 mg/L
same,minimum inhibitory concentrations in the presence of human serum versus absence of serum,[5],identical or one 2-fold dilution lower
same,MIC,Cryptococcus neoformans; [10],32 mg/L
same,IC50,prostrate DU-145,1.1 mg/L
same,MIC,[1],32 mg/L
same,MIC,Enterococcus faecalis; [10],8 to 16 mg/L
same,MIC,Streptococcus pneumoniae; [10],8 mg/L
same,MIC,Neisseria gonorrhoeae; [10],> 0.5 mg/L
same,MIC,Staphylococcus aureus; [10],4 to 8 mg/L
same,IC50,breast MCF-7,0.31 mg/L
same,MIC,Escherichia coli,16 to 64 mg/L
same,MIC,Micrococcus luteus; [10],4 mg/L
same,MIC,Enterobacter cloacae,> 64 mg/L
same,IC50,[3]; [9],0.12 mg/L
